Test results reported in the NIST ThermoML archive (doi:10.1016/j.jct.2018.08.005).
± gives the expanded uncertainty stated by the source.

Assay: xn = mol fraction of the nth substance listed
Settings: Liquid; for mass density: Vibrating tube method; for speed of sound: Frequency=3 MHz, Pulse-echo method

CCOC(F)(C(F)(F)C(F)(F)C(F)(F)F)C(F)(C(F)(F)F)C(F)(F)F (stereo not given) [2-trifluoromethyl-3-ethoxydodecafluorohexane] + CC(C)OC(C)C
Settings | mass density, x1 = 0.25 [kg/m3] | mass density, x1 = 0.375 [kg/m3] | mass density, x1 = 0.5 [kg/m3] | mass density, x1 = 0.625 [kg/m3] | mass density, x1 = 0.75 [kg/m3] | speed of sound, x1 = 0.25 [m/s] | speed of sound, x1 = 0.375 [m/s] | speed of sound, x1 = 0.5 [m/s] | speed of sound, x1 = 0.625 [m/s] | speed of sound, x1 = 0.75 [m/s]
353.15 K, 100 kPa | – | – | – | 1271.2 ± 0.8 | 1355.1 ± 0.8 | – | – | – | – | –
353.15 K, 10000 kPa | 986.5 ± 0.8 | 1105.6 ± 0.8 | 1212.9 ± 0.8 | 1308.2 ± 0.8 | 1393 ± 0.8 | – | – | – | – | –
353.15 K, 20000 kPa | 1009.3 ± 0.8 | 1131.2 ± 0.8 | 1240.1 ± 0.8 | 1337 ± 0.8 | 1422.7 ± 0.9 | 767.9 ± 2.2 | 724.5 ± 2.1 | 692.8 ± 2.1 | 676.5 ± 2.1 | 660.7 ± 2.2
353.15 K, 30000 kPa | 1028.2 ± 0.8 | 1152.3 ± 0.8 | 1262.7 ± 0.8 | 1360.8 ± 0.9 | 1447.4 ± 1 | – | – | – | – | –
353.15 K, 40000 kPa | 1044.4 ± 0.8 | 1170.2 ± 0.8 | 1281.9 ± 0.9 | 1381.2 ± 1 | 1468.5 ± 1.2 | 889.5 ± 2.2 | 841.4 ± 2.2 | 804.5 ± 2.1 | 785.2 ± 2.2 | 765.7 ± 2.2
353.15 K, 50000 kPa | 1058.7 ± 0.8 | 1186 ± 0.9 | 1298.8 ± 1 | 1399.2 ± 1.2 | 1487.3 ± 1.3 | – | – | – | – | –
353.15 K, 60000 kPa | 1071.6 ± 0.8 | 1200.3 ± 0.9 | 1314.2 ± 1.1 | 1415.5 ± 1.3 | 1504.2 ± 1.6 | 986.5 ± 2.2 | 935.6 ± 2.1 | 894 ± 2.1 | 872.6 ± 2.1 | 850.4 ± 2.2
353.15 K, 70000 kPa | 1083.3 ± 0.8 | 1213.3 ± 1 | 1328.1 ± 1.2 | 1430.3 ± 1.5 | 1519.5 ± 1.8 | – | – | – | – | –
353.15 K, 80000 kPa | 1094.2 ± 0.8 | 1225.2 ± 1.1 | 1340.9 ± 1.4 | 1443.9 ± 1.7 | 1533.7 ± 2.1 | – | 1015.6 ± 2.1 | 971 ± 2.1 | 947.8 ± 2.1 | 923.1 ± 2.1
353.15 K, 90000 kPa | 1104.1 ± 0.9 | 1236.2 ± 1.2 | 1352.7 ± 1.6 | 1456.5 ± 2 | 1546.8 ± 2.3 | – | – | – | – | –
353.15 K, 100000 kPa | 1113.4 ± 0.9 | 1246.6 ± 1.3 | 1363.8 ± 1.7 | 1468.2 ± 2.2 | 1559 ± 2.6 | 1142.6 ± 2.2 | – | 1039.1 ± 2.1 | 1014.4 ± 2.1 | 987.2 ± 2.1
353.15 K, 110000 kPa | 1122.1 ± 1 | 1256.3 ± 1.4 | 1374.2 ± 1.9 | 1479.2 ± 2.4 | 1570.4 ± 2.8 | – | – | – | – | –
353.15 K, 120000 kPa | 1130.4 ± 1 | 1265.4 ± 1.5 | 1384.1 ± 2.1 | 1489.7 ± 2.6 | 1581.4 ± 3.1 | – | – | – | – | –
353.15 K, 130000 kPa | 1138.3 ± 1.1 | 1274.2 ± 1.7 | 1393.5 ± 2.3 | 1499.7 ± 2.9 | 1591.7 ± 3.4 | – | – | – | – | –
353.15 K, 140000 kPa | 1145.6 ± 1.1 | 1282.4 ± 1.8 | 1402.4 ± 2.5 | 1509 ± 3.1 | 1601.4 ± 3.7 | – | – | – | – | –
363.15 K, 10000 kPa | 972.2 ± 0.8 | 1089.6 ± 0.8 | 1196.4 ± 0.8 | 1290.3 ± 0.8 | 1374.4 ± 0.8 | – | – | – | – | –
363.15 K, 20000 kPa | 996.8 ± 0.7 | 1117.1 ± 0.8 | 1225.6 ± 0.8 | 1321.2 ± 0.8 | 1406.2 ± 0.9 | – | – | – | – | –
363.15 K, 30000 kPa | 1016.8 ± 0.7 | 1139.3 ± 0.8 | 1249.3 ± 0.8 | 1346.4 ± 0.9 | 1432.1 ± 1 | – | – | – | – | –
363.15 K, 40000 kPa | 1033.8 ± 0.8 | 1158.1 ± 0.8 | 1269.5 ± 0.9 | 1367.8 ± 1 | 1454.3 ± 1.1 | – | – | – | – | –
363.15 K, 50000 kPa | 1048.7 ± 0.8 | 1174.8 ± 0.9 | 1287.3 ± 1 | 1386.6 ± 1.2 | 1473.8 ± 1.3 | – | – | – | – | –
363.15 K, 60000 kPa | 1062 ± 0.8 | 1189.6 ± 0.9 | 1303.1 ± 1.1 | 1403.4 ± 1.3 | 1491.2 ± 1.5 | – | – | – | – | –
